In the oligonucleotide strings, read from the 5' end, every base follows the letter of its sugar. An asterisk marks phosphorothioate; unmarked linkages are phosphodiester. Other units and linkages are bracketed, terminal groups are in braces. A string of capitals states the bases alone. e = 2'-O-(2-methoxyethyl) (MOE); [5mC] = 5-methylcytosine
Legend:
Type in all cases: cell-based, human
aP2 = aP2 mRNA expression in adipocytes (real-time PCR); conditions: for aP2 mRNA: Table 75
adipocytes = experiment: Triglyceride accumulation assay in adipocytes
HSL = HSL mRNA expression in adipocytes (real-time PCR)
PPARγ = PPARγ mRNA expression in adipocytes (real-time PCR)
Glut4 = Glut4 mRNA expression in adipocytes (real-time PCR)
[1] = differentiating adipocytes transfected with oligomeric compound
[2] = differentiating adipocytes transfected with oligomeric compound, Table 75
[3] = Table 18, differentiating adipocytes, control = treatment with ISIS 342673
[4] = Table 17, differentiating adipocytes, control = treatment with ISIS 342673

| Substance | aP2 mRNA (aP2; [1]) | TG (triglyceride accumulation) (adipocytes; [2]) | HSL mRNA (HSL; [2]) | PPAR gamma mRNA (PPARγ; [2]) | GLUT4 mRNA (Glut4; [2]) | also measured |
| --- | --- | --- | --- | --- | --- | --- |
| 346909 (UCACCAAAACAUGGAAGCACUUA; all 2'-MOE, all phosphorothioate, methylation of C and T or U not given here) [compound 346909] | 68 percentage of untreated control (UTC) | 66 percentage of untreated control (UTC) | 64 percentage of untreated control (UTC) | 77 percentage of untreated control (UTC) | 64 percentage of untreated control (UTC) |  |
| 346695 (CACUGGUACAAGGGUUGGGAGA; all 2'-MOE, all phosphorothioate, methylation of C and T or U not given here) [compound 346695] | 72 percentage of untreated control (UTC) | 69 percentage of untreated control (UTC) | 73 percentage of untreated control (UTC) | 78 percentage of untreated control (UTC) | 58 percentage of untreated control (UTC) |  |
| 328102 (antisense eG*e[5mC]*e[5mC]*e[5mC]*e[5mC]*eA*eT*eT*eA*eA*eT*eA*eT*eT*eT*eT*eA*eA*e[5mC]*e[5mC]*eA) [compound 328102] | 96 percentage of untreated control (UTC) | 70 percentage of untreated control (UTC) | 99 percentage of untreated control (UTC) | 94 percentage of untreated control (UTC) | 58 percentage of untreated control (UTC) | AP2 mRNA (aP2; [3]): 87.9 percentage of control; TG (triglyceride accumulation) (adipocytes; [3]): 95.9 percentage of control; HSL mRNA (HSL; [3]): 97.0 percentage of control; PPAR gamma mRNA (PPARγ; [3]): 93.7 percentage of control; GLUT4 mRNA (Glut4; [3]): 79.2 percentage of control |
| 344613 (ACACCAAUGCCCUAGGGGAUGCG; anti-miR; all 2'-MOE, all phosphorothioate, methylation of C and T or U not given here) [compound 344613] | 55 percentage of untreated control (UTC) | 47 percentage of untreated control (UTC) | 46 percentage of untreated control (UTC) | 57 percentage of untreated control (UTC) | 38 percentage of untreated control (UTC) |  |
| 346689 (CAUCAUUACCAGGCAGUAUUAGAG; all 2'-MOE, all phosphorothioate, methylation of C and T or U not given here) [compound 346689] | 79 percentage of untreated control (UTC) | 59 percentage of untreated control (UTC) | 63 percentage of untreated control (UTC) | 64 percentage of untreated control (UTC) | 45 percentage of untreated control (UTC) |  |
| 344614 (CCAGCAGCACCUGGGGCAGU; all 2'-MOE, all phosphorothioate, methylation of C and T or U not given here) [compound 344614] | 78 percentage of untreated control (UTC) | 89 percentage of untreated control (UTC) | 71 percentage of untreated control (UTC) | 86 percentage of untreated control (UTC) | 61 percentage of untreated control (UTC) |  |
| 328132 (antisense eG*eT*eG*eA*eG*eA*eG*eT*eA*eG*e[5mC]*eA*eT*eG*eT*eT*eT*eG*eT*e[5mC]*eT) [compound 328132] |  |  |  |  |  | AP2 mRNA (aP2; [4]): 90.2 percentage of control; AP2 mRNA (aP2; [1]): 81 percentage of untreated control (UTC); TG (triglyceride accumulation) (adipocytes; [4]): 114.1 percentage of control; TG (triglyceride accumulation) (adipocytes; [1]): 120 percentage of untreated control (UTC); HSL mRNA (HSL; [4]): 73.7 percentage of control; HSL mRNA (HSL; [1]): 89 percentage of untreated control (UTC); PPAR gamma mRNA (PPARγ; [4]): 90.0 percentage of control; PPAR gamma mRNA (PPARγ; [1]): 94 percentage of untreated control (UTC); GLUT4 mRNA (Glut4; [4]): 72.1 percentage of control; GLUT4 mRNA (Glut4; [1]): 67 percentage of untreated control (UTC) |
| 344617 (GACGGGUGCGAUUUCUGUGUGAGA; all 2'-MOE, all phosphorothioate, methylation of C and T or U not given here) [compound 344617] | 59 percentage of untreated control (UTC) | 52 percentage of untreated control (UTC) | 55 percentage of untreated control (UTC) | 72 percentage of untreated control (UTC) | 42 percentage of untreated control (UTC) |  |
| 346687 (AGCAAGCCCAGACCGCAAAAAG; all 2'-MOE, all phosphorothioate, methylation of C not given here) [compound 346687] | 56 percentage of untreated control (UTC) | 55 percentage of untreated control (UTC) | 53 percentage of untreated control (UTC) | 60 percentage of untreated control (UTC) | 35 percentage of untreated control (UTC) |  |
| 328090 (antisense eA*eT*eT*eA*eA*eA*eA*eA*eG*eT*e[5mC]*e[5mC]*eT*e[5mC]*eT*eT*eG*e[5mC]*e[5mC]*e[5mC]*eA) [compound 328090] | 68 percentage of untreated control (UTC) | 128 percentage of untreated control (UTC) | 81 percentage of untreated control (UTC) | 95 percentage of untreated control (UTC) | 86 percentage of untreated control (UTC) |  |
| 328135 (eA*e[5mC]*e[5mC]*eG*eA*eA*e[5mC]*eA*eA*eA*eG*eT*e[5mC]*eT*eG*eA*e[5mC]*eA*eG*eG*eA; anti-miR) [compound 328135] | 34 percentage of untreated control (UTC) | 29 percentage of untreated control (UTC) | 20 percentage of untreated control (UTC) | 33 percentage of untreated control (UTC) | 19 percentage of untreated control (UTC) | AP2 mRNA (aP2; [4]): 80.6 percentage of control; TG (triglyceride accumulation) (adipocytes; [4]): 63.6 percentage of control; HSL mRNA (HSL; [4]): 76.7 percentage of control; PPAR gamma mRNA (PPARγ; [4]): 70.0 percentage of control; GLUT4 mRNA (Glut4; [4]): 90.3 percentage of control |
| 346691 (GCAGAAGCAUUUCCACACAC; all 2'-MOE, all phosphorothioate, methylation of C and T or U not given here) [compound 346691] | 69 percentage of untreated control (UTC) | 56 percentage of untreated control (UTC) | 69 percentage of untreated control (UTC) | 79 percentage of untreated control (UTC) | 64 percentage of untreated control (UTC) |  |
| 346917 (CAGCUAUGCCAGCAUCUUGCCU; all 2'-MOE, all phosphorothioate, methylation of C and T or U not given here) [compound 346917] | 33 percentage of untreated control (UTC) | 39 percentage of untreated control (UTC) | 27 percentage of untreated control (UTC) | 31 percentage of untreated control (UTC) | 20 percentage of untreated control (UTC) |  |
| 328097 (antisense eT*eG*eT*e[5mC]*eA*eG*eA*eT*eA*eA*eA*e[5mC]*eA*eG*eA*eG*eT*eG*eG*eA*eA) [compound 328097] | 48 percentage of untreated control (UTC) | 65 percentage of untreated control (UTC) | 54 percentage of untreated control (UTC) | 63 percentage of untreated control (UTC) | 62 percentage of untreated control (UTC) |  |
| 328092 (antisense eG*eG*eT*eA*eG*eG*eT*eG*eG*eA*eA*eT*eA*e[5mC]*eT*eA*eT*eA*eA*e[5mC]*eA) [compound 328092] | 74 percentage of untreated control (UTC) | 134 percentage of untreated control (UTC) | 80 percentage of untreated control (UTC) | 86 percentage of untreated control (UTC) | 78 percentage of untreated control (UTC) |  |
| 346688 (UAGUUGGCAAGUCUAGAACCA; all 2'-MOE, all phosphorothioate, methylation of C and T or U not given here) [compound 346688] | 48 percentage of untreated control (UTC) | 33 percentage of untreated control (UTC) | 39 percentage of untreated control (UTC) | 55 percentage of untreated control (UTC) | 12 percentage of untreated control (UTC) |  |
| 348127 (GCAGAACUUAGCCACUGUGAA; all 2'-MOE, all phosphorothioate, methylation of C and T or U not given here) [compound 348127] | 185 percentage of untreated control (UTC) | 155 percentage of untreated control (UTC) | 150 percentage of untreated control (UTC) | 130 percentage of untreated control (UTC) | 201 percentage of untreated control (UTC) |  |
| 344340 (UGUCCGUGGUUCUACCCUGUGGUA; all 2'-MOE, all phosphorothioate, methylation of C and T or U not given here) [compound 344340] | 82 percentage of untreated control (UTC) | 60 percentage of untreated control (UTC) | 47 percentage of untreated control (UTC) | 67 percentage of untreated control (UTC) | 16 percentage of untreated control (UTC) |  |
